# System: Staphylococcus epidermidis
# Experiment: Anti-microbial performance test: growth inhibition of axillary isolate of S. epidermidis in semi-synthetic medium (OD 600 nm)
# Assay type: cell-based
# Conditions: concentration of 3×10^−6 mol.dm^−3 or less
# Procedure: An axillary isolate of Staphylococcus epidermidis was grown overnight in 100 ml of tryptone soy broth (TSB, Oxoid Ltd). 10 ml of this culture was taken and subjected to centrifugation. The separated cells were re-suspended in 10 ml of phosphate buffered saline and the centrifugation procedure repeated. The washed cells were re-suspended in 10 ml of phosphate buffered saline to give the inoculum. 100 μl of the inoculum was added to 100 ml of semi-synthetic medium (SSM) containing (NH4)2SO4 (0.066 g),MgSO4.7H2O (0.012 g), KCl (0.1 g), KH2PO4 (0.27 g), Na2HPO4 (1.43 g), thiamin (0.1 mg), biotin (0.05 mg), Peptone P (0.05 g), and glucose (2.0 mmole) which had been previously sterilised by autoclaving at 121° C. for 20 minutes. The pH of the SSM was adjusted to 6.7 with HCl after sterilisation, prior to addition of the inoculum. This control medium was utilised in all of the in vitro inhibition studies. The chelator-containing test media were prepared in a similar manner, the chelator being introduced at a concentration of 3×10^−6 mol.dm^−3 before the pH adjustment with HCl.
# 100 μl of the S. epidermidis inoculum was introduced into the control medium and into test media containing the chelators indicated in Table 2. The cultures were inoculated at 37° C. (with agitation at 200 rpm) for 16 hours, and the optical density of the cultures measured at 600 nm to determine the extent of bacterial growth. By comparison of the optical density of the culture in the presence of chelating agent, to that of the control, the percentage inhibition of growth was established. (Optical density measurements were made on 1 in 4 dilutions of the cultures with 0.9% (w/v) saline, using 1 cm path length cuvettes, on a Pharmacia Biotech Ultrospec 200 Spectrophotometer.)
row,Compound,Significant inhibition of growth of S. epidermidis (at least 30%)
1,"O=C(O)CN(CC(=O)O)[C@@H]1CCCC[C@H]1N(CC(=O)O)CC(=O)O (relative stereo) [CDTA, trans-1,2-diaminocyclohexane-N,N,N′,N′-tetraacetic acid]",are not
2,"O=C(O)CN(CCN(CC(=O)O)CC(=O)O)CCN(CC(=O)O)CC(=O)O [DTPA, diethylenetriaminepentaacetic acid]",capable of achieving significant inhibition
3,"O=C(O)CN(CCN(CC(=O)O)CC(=O)O)CC(=O)O [EDTA, ethylenediaminetetraacetic acid]",are not
4,"O=C(O)CN(CCN(CCN(CC(=O)O)CC(=O)O)CC(=O)O)CCN(CC(=O)O)CC(=O)O [TTHA, triethylenetetraaminehexaacetic acid]",capable of achieving significant inhibition

# Molecular target: T1, human diferric transferrin (Homo sapiens, UniProt P02787)
# T1 construct: purchased Sigma Chemicals
# T1 sequence (P02787 20-698): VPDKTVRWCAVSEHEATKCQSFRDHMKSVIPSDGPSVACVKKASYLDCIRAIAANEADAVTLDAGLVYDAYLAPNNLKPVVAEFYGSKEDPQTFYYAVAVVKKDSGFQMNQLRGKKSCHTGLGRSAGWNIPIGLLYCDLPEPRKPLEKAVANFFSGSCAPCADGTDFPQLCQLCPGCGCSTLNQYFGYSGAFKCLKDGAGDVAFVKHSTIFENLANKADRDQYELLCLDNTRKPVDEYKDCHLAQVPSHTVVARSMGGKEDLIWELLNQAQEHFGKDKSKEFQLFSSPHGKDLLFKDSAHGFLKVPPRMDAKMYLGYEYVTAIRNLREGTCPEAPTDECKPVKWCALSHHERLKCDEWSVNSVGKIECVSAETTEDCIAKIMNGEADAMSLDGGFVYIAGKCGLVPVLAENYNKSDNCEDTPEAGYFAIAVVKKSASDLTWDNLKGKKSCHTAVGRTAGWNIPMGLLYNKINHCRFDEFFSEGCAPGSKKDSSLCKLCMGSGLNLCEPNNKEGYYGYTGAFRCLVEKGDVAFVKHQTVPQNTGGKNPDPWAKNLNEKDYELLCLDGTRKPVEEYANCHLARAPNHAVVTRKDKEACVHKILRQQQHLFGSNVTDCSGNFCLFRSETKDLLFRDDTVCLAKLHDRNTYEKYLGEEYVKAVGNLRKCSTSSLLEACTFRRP
# Experiment: Transferrin dissociation promotion test (FerroZine, absorption at 562 nm)
# Assay type: biochemical
# Conditions: after 24 hours, 10 mmol.l^−1 test material, 37° C., pH 6.5, control 0.111
# Procedure: 2.7 g.l^−1 human diferric transferrin (ex Sigma Chemicals) is incubated at 37° C. in 50 mM HEPES (N-[2-hydroxyethyl]piperazine-N-[2-ethanesulfonic acid]) buffer adjusted to pH 6.5 with sodium hydroxide, together with 0.115 g.l^−1 FerroZine (ex Sigma Chemicals; 3-(2-pyridyl)-5,6-bis(4-phenylsulfonic acid)-1,2,4-triazine, monosodium salt) and 10 mmol.l^−1 of the test material, if water soluble, or 2.5 g.l^−1 of the test material, added as a finely ground powder, if water insoluble.
# After 24 hours, the extent of transferrin dissociation is estimated by eye or spectrophotometrically. Transferrin dissociation promoters lead a purple colouration; in particular, they lead to an absorption at 562 nm of 0.15 or greater. This purple colouration is the result of the production of iron(II) tri(FerroZine) complex. The molar concentration of this complex is equal to the molar concentration of iron dissociated from the transferrin.
# 2.7 g.l^−1 human diferric transferrin (ex Sigma Chemicals) was incubated at 37° C. in 50 mM HEPES (N-[2-hydroxyethyl]piperazine-N′-[2-ethanesulfonic acid]) buffer adjusted to pH 6.5 with sodium hydroxide, together with 0.115 g.l^−1 FerroZine (ex Sigma Chemicals; 3-(2-pyridyl)-5,6-bis(4-phenylsulfonic acid)-1,2,4-triazine, monosodium salt) and 10 mmol.l^−1 of the test material.
# After 24 hours, the extent of transferrin dissociation was estimated spectrophotometrically by measuring absorption at 562 nm (vide supra). The data (see Table 5) illustrate the enhanced transferrin dissociation occurring in the presence of the indicated test materials.
row,Compound,Absorption
1,"O=S(=O)(O)c1cc(O)c(O)c(S(=O)(=O)O)c1 [Iron, 4,5-dihydroxy-1,3-benzenedisulfonic acid]",0.425
2,O=C(O)c1ccc(O)c(O)c1 [Protocatechuic acid],0.391
3,O=C(O)c1ccccc1O [Salicylic acid],0.305
